Several values for one entry are separate records, joined by “and”; a condition that tells them apart may be missing. Identical values can stand only once.
Assays:
[1] = system: standard purified aortic LO; test: Lysyl oxidase activity assay with tritiated elastin substrate on standard purified aortic LO; assay type: biochemical; conditions: Experiment 2, substrate no. 2, standard purified aortic LO
Experimental: (§1) The Lysyl oxidase activity was assayed with 300,000 dpm of labelled elastin on the Lysine, substrate of the enzyme (Shackelton and Hulmes Anal. Biochem. (1990) 185: 359-362). The determination of the presence of Lysyl oxidases in the cultures of chondrocytes is carried out according to the standard methods of immunodecoration of the supports onto which the bands separated from the proteins extracted from the corresponding culture media or from the cell lawns have been transferred.

[2] = system: chondrocytes from the sternum of chicken embryos; test: Dedifferentiation of chicken embryo chondrocytes in two-dimensional culture on plastic (fluorography of 14C-proline labelled collagens, morphology); assay type: cell-based
From the text: a) The experimental chondrocyte culture model is the one with the culture of chicken embryo chondrocytes on plastic in two dimensions. The embryonic state of the cells allows a high level of synthesis of the collagens, unlike the adult chondrocytes. The chicken sternum from which the chondrocytes originates Makes it possible to obtain two pure sub-populations of chondrocytes capable or not capable of subsequently hypertrophying (respectively, the chondrocytes of the cranial or caudal section of the sternum). […] The results which are described always distinguish the sub-population of the chondrocytes studied.
The cultures with 4 mM L-glutamine antibiotics, and 25 μg/ml ascorbate (factor necessary for the stability of the secreted collagen triple helix units) are continued for 2 weeks in the presence or absence of 10% serum, optionally replaced by 100 ng/ml insulin, and by 50 μg/ml βAPN. The absence of serum necessitates the addition of protective agents (1 mM cysteine and 1 mM pyruvate). A day before taking the samples, 10 μCi of 14C Proline is added to the cultures the lawns or media of which are then pepsinated (0.2 mg pepsin/ml/pH 4/24 hours) and subjected to electrophoretic (SDS PAGE gradient of 4.5 at 15% acrylamide) then fluorographic analysis. The fluorographs then reveal the only pepsin-resistant protein bands, essentially the collagens and lipocalines (proteins with lipid transport). The known position of these bands allows the indication of the dedifferentiation of the cells by the appearance of the α2 I chain of collagen I associated with the lowering of the synthesis of the collagens of cartilage type.
βAPN (50 μg/ml) is added immediately upon inoculation, to the culture medium which is renewed every 2 days and applied to the cultures of chondrocytes as well as to those of fibroblasts then of keratinocytes during the formation of the reconstructed skin. […]

[3] = system: LOX, LOXL1 expression by chondrocytes; test: Immunodecoration with anti LOX, LOXL1 antibodies of extracts of chondrocyte cell lawns and culture medium; assay type: cell-based, chicken; conditions: 6th or 14th day of culture
Experimental: as §1
The day before the samples are taken, the cell lawn is washed three times with medium without serum. The medium is then changed for 24 hours with complete medium without serum.
On the 6th or 14th day of culture the media are sampled and precipitated in a standard fashion with TCA 10% final/4° C./[…]. The centrifugation pellets are rinsed with acetone then solubilized in a 50 μl electrophoresis buffer. The rinsed cell lawns are lysed 2 hours/4° C. (300 μl/P35) in the mixture 8M urea, 0.5% Nonidet, 16 mM disodium phosphate pH 8 and protease inhibitors. […]
After separation by SDS PAGE and transfer by Western Blot, the protein bands are analyzed by immunodecoration using polyclonal anti-LOX and anti-LOXL1 antibodies from rabbits, then a second anti-rabbit antibody marked with alkaline phosphatase before development with the reagent NBT/BCIP (Roche Diagnostic GmBH, Mannheim, Germany).

[4] = system: hypertrophic chondrocytes of chicken embryos; test: Reversibility of effects on bridgings of collagen IX chains in cell lawn of hypertrophic chondrocytes (fluorography); assay type: cell-based; conditions: washings with PBS then medium without βAPN
Experimental: Chondrocytes of the cranial section of the sternum were inoculated at a high concentration (5 million cells per P35 Petri dish) then subjected to 24 hours of radio-labelling with proline 14C on the 7th, 14th and […] day of culture (respectively day 7, day 14 and day 21).
βAPN was present (+) or absent. (−) for the entire duration of the culture, or present only during the first week ((+)).

fibroblasts = test: Fibroblasts cultured in monolayer: cell count and MTT viability test; assay type: cell-based, human
From the text: (§2) The support of the reconstructed skin model is constituted by a dermal substrate (DS) with a base of collagen-glycosaminoglycan cross-linked by chitosan according to the technique published by Duplan-Perrat et al (J Invest Dermatol 2000 114:365). Fibroblasts are inoculated the inside of the DS in order to obtain an equivalent dermis. The reconstituted skin (RS) is obtained by inoculating the keratinocytes after 15 days (day 15) of culture in equivalent dermis. The dermal fibroblasts are obtained from explants of human prepuces after dermal-epidermal separation and cultured in monolayer in DMEM medium (Sigma) supplemented by 10% fœtal calf serum, 4 mM L-glutamine, EGF (Austral Biologic) at 10 ng/ml, penicillin at 100 UI/ml, gentamicin at 100 μg/ml and amphotericin B at 1 μg/ml. The keratinocytes are from a human skin biopsy sample after dermal-epidermal separation by trypsination. The cells are inoculated nutritive layers (irradiated fibroblasts) and cultured in DMEM and HAM F12 at 30% supplemented with fœetal calf serum at 10%, EGF at 10 ng/ml, hydrocortisone at 1.6 ng/ml, umulin at 0.12 UI/ml, choleratoxin at 0.1 nM, triiodothyronine at 0.2 μM, adenine at 24 μg/ml, 4 mM L-Glutamine, penicillin at 100 UI/ml, gentamicin at 100 μg/ml and amphotericin B at 1 μg/ml.
(§3) In fact, the number of these cells is reduced by approximately 50% compared to the control when they are cultured in the presence of 600 μg/ml of βAPN. […] The results of the MTT viability test confirm those of the cell count. […] It must be emphasized that βAPN at 200 μg/ml can optionally cause an increase in cell activity (proliferation and viability) on the fibroblasts inoculated at a low density, and on the fibroblasts and the keratinocytes inoculated at a high density.

keratinocytes = test: Keratinocytes cultured in monolayer: cell count and MTT viability test; assay type: cell-based, human
From the text: as §2, §3

N#CCCN [βAPN, β-aminopropionitrile]
dpm + βAPN (Lysyl oxidase activity assay) [1]: 4340 dpm and 4762 dpm
effectiveness against dedifferentiation of the chondrocytes ([2]; 50 μg/ml, after 2 weeks of culture): total
biochemical dedifferentiation of the chondrocytes (collagen I secreted, stopping of the synthesis of collagen X) ([2]; 50 μg/ml, cranial chondrocytes, in the presence of serum, 2 weeks, 2D on plastic): totally inhibited
expression of collagen X by the hypertrophic (cranial) chondrocytes ([2]; after 3 days of culture, in the presence of serum, media and cell lawns): allows the normal expression of collagen X
expression of Lysyl oxidase molecules (LOX, LOXL1) [3]: does not modify the expression of Lysyl oxidase molecules
reversibility of the modifications in the bridgings between chains of collagen IX after elimination of βAPN [4]: ≤ 6 days
proliferation of the fibroblasts (fibroblasts; 200 μg/ml): slightly increased
effect on the viability and the multiplication (fibroblasts; 200 μg/ml, isolated cultures): little effect
reduction of the number of cells compared to the control (fibroblasts; 600 μg/ml): approximately 50%
concentration with inhibiting effect on proliferation (fibroblasts; cell count and MTT): greater than 500 μg/ml
toxic effect on cells at confluence (fibroblasts; up to 800 μg/ml): no toxic effect
reduction of proliferation of the keratinocytes (keratinocytes; 200 μg/ml): approximately 10%
effect on the viability and the multiplication (keratinocytes; 200 μg/ml, isolated cultures): little effect
reduction of the number of cells compared to the control (keratinocytes; 600 μg/ml): approximately 50%
concentration with inhibiting effect on proliferation (keratinocytes; cell count and MTT): greater than 500 μg/ml
toxic effect on cells at confluence (keratinocytes; up to 800 μg/ml): no toxic effect

From patent publication US20040248871A1, “Use of lysyl oxidase inhibitors for cell culture and tissue engineering” (priority 2001, published 2004)
